Data set [1] concerns the target Pho16B (uncultured organism, UniProt A0A3G1QTG4). Description: phosphate release, ammonium molybdate assay at […] nm; Michaelis-Menten fit. The following applies: pH 5.6, 45 °C; printed kcat, Km and kcat/Km do not agree.
Data set [2] concerns O=[N+]([O-])c1ccc(OP(=O)(O)O)cc1. The experiment in a line: purified protein. The following applies: pH 5.6, 45 °C, printed kcat, Km and kcat/Km do not agree.

Chain of Pho16B (A0A3G1QTG4 1-376): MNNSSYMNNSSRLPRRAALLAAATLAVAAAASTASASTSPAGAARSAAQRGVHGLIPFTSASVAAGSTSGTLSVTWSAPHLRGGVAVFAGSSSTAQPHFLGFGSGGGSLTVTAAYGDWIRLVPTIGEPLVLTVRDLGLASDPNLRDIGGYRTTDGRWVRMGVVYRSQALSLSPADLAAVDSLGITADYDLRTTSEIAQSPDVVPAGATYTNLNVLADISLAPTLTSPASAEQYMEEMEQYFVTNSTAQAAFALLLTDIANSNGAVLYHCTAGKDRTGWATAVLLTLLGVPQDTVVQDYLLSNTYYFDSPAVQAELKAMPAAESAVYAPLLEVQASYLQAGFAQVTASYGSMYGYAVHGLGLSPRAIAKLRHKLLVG

As to Naphthyl phosphate, the Km in data set [1] came to 966 ± 180 µM.
In the case of Pho16B (uncultured organism), the Michaelis-Menten constant (Km) in data set [2] came to 1026 ± 140 µM.

Broadly, the Km is the concentration of substrate that gives half-maximal velocity.
